# Assays:
# Type in all cases: in vivo
# Sunflower [1] = assay: Test C preemergence; settings: Rate 500 g/ha, visual evaluation after 12 to 14 days
# [2] = system: Surinam grass (Brachiaria decumbens); assay: Test C preemergence; settings: for Plant response rating (0 to 100), Surinam grass: visual evaluation after 12 to 14 days
# Outline: (§1)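 Pre- and postemergence treatments used a non-phytotoxic solvent/surfactant formulation; post-treated plants measured 2 to 18 cm. Greenhouse hold 12–14 d; % control estimated visually relative to controls.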
# [3] = system: morningglory (Ipomoea hederacea); assay: Test C preemergence
# Outline: as §1
# [4] = system: pigweed (Amaranthus retroflexus); assay: Test C preemergence
# Outline: as §1
# [5] = system: yellow nutsedge (Cyperus esculentus); assay: Test C preemergence
# Outline: as §1
# [6] = system: bermudagrass (Cynodon dactylon); assay: Test C preemergence; settings: for Plant response rating (0 to 100 where 0 is no effect and 100 is complete control), Bermudagrass: visual evaluation after 12 to 14 days
# Outline: as §1
# [7] = system: cocklebur (Xanthium strumarium); assay: Test C preemergence; settings: for Plant response rating (0 to 100), Cocklebur: visual evaluation after 12 to 14 days
# Outline: as §1
# corn (Zea mays) = assay: Test C preemergence; settings: for Plant response rating (0 to 100), Corn: visual evaluation after 12 to 14 days
# Outline: as §1
# [8] = system: woolly cupgrass (Eriochloa villosa); assay: Test C preemergence; settings: for Plant response rating (0 to 100), Cupgrass, Woolly: visual evaluation after 12 to 14 days
# Outline: as §1
# [9] = system: goosegrass (Eleusine indica); assay: Test C preemergence; settings: for Plant response rating (0 to 100), Goosegrass: visual evaluation after 12 to 14 days
# Outline: as §1
# [10] = system: crabgrass (Digitaria sanguinalis); assay: Test C preemergence; settings: for Plant response rating (0 to 100), Crabgrass: visual evaluation after 12 to 14 days
# Outline: as §1
# [11] = system: lambsquarters (Chenopodium album); assay: Test C preemergence
# Outline: as §1
# [12] = system: johnsongrass (Sorghum halepense); assay: Test C preemergence; settings: for Plant response rating (0 to 100), Johnsongrass: visual evaluation after 12 to 14 days
# Outline: as §1
# soybean (Glycine max) = assay: Test C preemergence
# Outline: as §1
# Nightshade = assay: Test C preemergence
# kochia (Kochia scoparia) = assay: Test C preemergence; settings: for Plant response rating (0 to 100), Kochia: visual evaluation after 12 to 14 days
# Outline: as §1
# [13] = system: velvetleaf (Abutilon theophrasti); assay: Test C preemergence
# Outline: as §1
# [14] = system: giant foxtail (Setaria faberii); assay: Test C preemergence; settings: for Plant response rating (0 to 100), Foxtail, Giant: visual evaluation after 12 to 14 days
# Outline: as §1
# Sunflower [15] = assay: Test C preemergence; settings: Rate 125 g/ha; scale 0 to 100, 0 no effect, 100 complete control
# [16] = system: barnyardgrass (Echinochloa crus-galli); assay: Test C flooded paddy test; settings: for Barnyardgrass plant response rating: Flooded Paddy, scale 0 to 100, 0 no effect, 100 complete control; for Plant response rating, Barnyardgrass: flooded paddy test, scale 0 to 100 (0 no effect, 100 complete control)
# Outline: (§2)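 Ratings come from visual comparison with control plants after 12 to 14 days in the greenhouse. Each species was at the 2-leaf stage when the flooded paddy was treated. Scores run from 0, meaning no effect, to 100, meaning complete control.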
# [17] = system: duck salad (Heteranthera limosa); assay: Test C flooded paddy test; settings: for Ducksalad plant response rating: Flooded Paddy, scale 0 to 100, 0 no effect, 100 complete control; for Plant response rating, Ducksalad: flooded paddy test, scale 0 to 100 (0 no effect, 100 complete control)
# Outline: as §2
# [18] = system: smallflower flatsedge (Cyperus difformis); assay: Test C flooded paddy test; settings: for Flatsedge plant response rating: Flooded Paddy, scale 0 to 100, 0 no effect, 100 complete control; for Plant response rating, Flatsedge: flooded paddy test, scale 0 to 100 (0 no effect, 100 complete control)
# Outline: as §2
# [19] = Rate 125 g/ha, scale 0 to 100, 0 no effect, 100 complete control
# [20] = preemergence, Rate 62 g/ha, scale 0 to 100
# [21] = preemergence, Rate 500 g/ha, visual evaluation after 12 to 14 days
# [22] = preemergence, Rate 250 g/ha, scale 0 to 100, 0 no effect, 100 complete control
structure (smiles),measurement,setting,value
COc1cccc(N2CCC(n3ccc(C(C)(C)C)n3)C2=O)c1 (stereo not drawn) [Compound 87],"Plant response rating (0 to 100), Sunflower",Sunflower [1],30
same,"Plant response rating, Surinam grass",[2]; [19],100
same,"Plant response rating, Surinam grass",[2]; [20],40
same,"Plant response rating (0 to 100), Surinam grass","[2]; preemergence, Rate 250 g/ha",100
same,"Plant response rating (0 to 100), Surinam grass","[2]; preemergence, Rate 500 g/ha",100
same,"Plant response rating, Morningglory",[3]; [19],0
same,"Plant response rating, Morningglory",[3]; [20],0
same,"Plant response rating (0 to 100), Morningglory",[3]; [21],0
same,"Plant response rating, Morningglory",[3]; [22],0
same,"Plant response rating, Pigweed",[4]; [19],0
same,"Plant response rating, Pigweed",[4]; [20],0
same,"Plant response rating (0 to 100), Pigweed",[4]; [21],100
same,"Plant response rating, Pigweed",[4]; [22],100
same,"Plant response rating, Nutsedge",[5]; [19],20
same,"Plant response rating, Nutsedge",[5]; [20],20
same,"Plant response rating (0 to 100), Nutsedge",[5]; [21],20
same,"Plant response rating, Nutsedge",[5]; [22],20
same,"Plant response rating, Bermudagrass",[6]; [19],100
same,"Plant response rating, Bermudagrass",[6]; [20],100
same,"Plant response rating (0 to 100 where 0 is no effect and 100 is complete control), Bermudagrass","[6]; preemergence, Rate 250 g/ha",100
same,"Plant response rating (0 to 100 where 0 is no effect and 100 is complete control), Bermudagrass","[6]; preemergence, Rate 500 g/ha",100
same,"Plant response rating, Cocklebur",[7]; [19],0
same,"Plant response rating, Cocklebur",[7]; [20],0
same,"Plant response rating (0 to 100), Cocklebur","[7]; preemergence, Rate 250 g/ha",0
same,"Plant response rating (0 to 100), Cocklebur","[7]; preemergence, Rate 500 g/ha",0
same,"Plant response rating, Corn",corn (Zea mays); [19],70
same,"Plant response rating, Corn",corn (Zea mays); [20],40
same,"Plant response rating (0 to 100), Corn","corn (Zea mays); preemergence, Rate 250 g/ha",70
same,"Plant response rating (0 to 100), Corn","corn (Zea mays); preemergence, Rate 500 g/ha",80
same,"Plant response rating, Cupgrass, Woolly",[8]; [19],100
same,"Plant response rating, Cupgrass, Woolly",[8]; [20],90
same,"Plant response rating (0 to 100), Cupgrass, Woolly","[8]; preemergence, Rate 250 g/ha",100
same,"Plant response rating (0 to 100), Cupgrass, Woolly","[8]; preemergence, Rate 500 g/ha",100
same,"Plant response rating, Goosegrass",[9]; [19],100
same,"Plant response rating, Goosegrass",[9]; [20],100
same,"Plant response rating (0 to 100), Goosegrass","[9]; preemergence, Rate 250 g/ha",100
same,"Plant response rating (0 to 100), Goosegrass","[9]; preemergence, Rate 500 g/ha",100
same,"Plant response rating, Crabgrass",[10]; [19],100
same,"Plant response rating, Crabgrass",[10]; [20],100
same,"Plant response rating (0 to 100), Crabgrass","[10]; preemergence, Rate 250 g/ha",100
same,"Plant response rating (0 to 100), Crabgrass","[10]; preemergence, Rate 500 g/ha",100
same,"Plant response rating, Lambsquarters",[11]; [19],100
same,"Plant response rating, Lambsquarters",[11]; [20],100
same,"Plant response rating (0 to 100), Lambsquarters",[11]; [21],100
same,"Plant response rating, Lambsquarters",[11]; [22],100
same,"Plant response rating, Johnsongrass",[12]; [19],90
same,"Plant response rating, Johnsongrass",[12]; [20],90
same,"Plant response rating (0 to 100), Johnsongrass","[12]; preemergence, Rate 250 g/ha",100
same,"Plant response rating (0 to 100), Johnsongrass","[12]; preemergence, Rate 500 g/ha",100
same,"Plant response rating, Soybean",soybean (Glycine max); [19],20
same,"Plant response rating, Soybean",soybean (Glycine max); [20],0
same,"Plant response rating (0 to 100), Soybean",soybean (Glycine max); [21],30
same,"Plant response rating, Soybean",soybean (Glycine max); [22],20
same,"Plant response rating, Nightshade","Nightshade; Rate 62 g/ha, scale 0 to 100",0
same,"Plant response rating, Nightshade",Nightshade; [19],10
same,"Plant response rating, Nightshade","Nightshade; Rate 250 g/ha, scale 0 to 100, 0 no effect, 100 complete control",60
same,"Plant response rating, Kochia",kochia (Kochia scoparia); [19],100
same,"Plant response rating, Kochia",kochia (Kochia scoparia); [20],100
same,"Plant response rating (0 to 100), Kochia","kochia (Kochia scoparia); preemergence, Rate 250 g/ha",100
same,"Plant response rating (0 to 100), Kochia","kochia (Kochia scoparia); preemergence, Rate 500 g/ha",100
same,"Plant response rating, Velvetleaf",[13]; [19],10
same,"Plant response rating, Velvetleaf",[13]; [20],10
same,"Plant response rating (0 to 100), Velvetleaf",[13]; [21],20
same,"Plant response rating, Velvetleaf",[13]; [22],10
same,"Plant response rating, Foxtail, Giant",[14]; [19],100
same,"Plant response rating, Foxtail, Giant",[14]; [20],30
same,"Plant response rating (0 to 100), Foxtail, Giant","[14]; preemergence, Rate 250 g/ha",100
same,"Plant response rating (0 to 100), Foxtail, Giant","[14]; preemergence, Rate 500 g/ha",100
same,"Plant response rating, Sunflower",Sunflower [15],20
same,Barnyardgrass plant response rating,[16]; Rate 250 g/ha,70
same,Barnyardgrass plant response rating,[16]; Rate 500 g/ha,100
same,"Plant response rating, Barnyardgrass",[16]; Rate 62 g/ha,0
same,"Plant response rating, Barnyardgrass",[16]; Rate 125 g/ha,70
same,Ducksalad plant response rating,[17]; Rate 250 g/ha,50
same,Ducksalad plant response rating,[17]; Rate 500 g/ha,100
same,"Plant response rating, Ducksalad",[17]; Rate 62 g/ha,0
same,"Plant response rating, Ducksalad",[17]; Rate 125 g/ha,50
same,Flatsedge plant response rating,[18]; Rate 250 g/ha,100
same,Flatsedge plant response rating,[18]; Rate 500 g/ha,100
same,"Plant response rating, Flatsedge",[18]; Rate 62 g/ha,0
same,"Plant response rating, Flatsedge",[18]; Rate 125 g/ha,100

# Source: patent US7138361B2, “Herbicidal heterocycles” (E. I. du Pont de Nemours and Company, priority 2000, dated 2006)
